This is an account of results in the NIST ThermoML archive (doi:10.1021/je900502s).

Numbers after ± are expanded uncertainties.

The conditions of series [1]: for surface tension liquid-gas: Pendant drop shape; for mass density: 101.33 kPa, Liquid, Pycnometric method.
The conditions of series [2]: 293.15 K; 101 kPa; Liquid mixture 1; pendant drop method.

As usually defined, the surface tension liquid-gas is the force per length acting along the surface. As for `CCCCCCCC[N+](C)(CCCCCCCC)CCCCCCCC.O=S(=O)([N-]S(=O)(=O)C(F)(F)F)C(F)(F)F`, the surface tension liquid-gas in series [1] (293.15 K) worked out at 22.77 ± 0.43 mN/m.

One may read the mass density as mass per unit of volume. Consider `CCCCCCCCn1cc[n+](C)c1.O=S(=O)([N-]S(=O)(=O)C(F)(F)F)C(F)(F)F`, for which, in series [1] (293.15 K), the surface tension liquid-gas is listed as 30.55 ± 0.56 mN/m and the mass density turned out to be 1340 ± 4 kg/m3.

As to `CCCCCCN(CCCCCC)C(N(C)C)=[N+](CCCCCC)CCCCCC.N#C[N-]C#N`, in series [1] (293.15 K), the surface tension liquid-gas came out at 21.35 ± 0.49 mN/m.

Consider `CCCCCCN(CCCCCC)C(N(C)C)=[N+](CCCCCC)CCCCCC.[Cl-]`, for which the surface tension liquid-gas in series [1] (293.15 K) turned out to be 28.95 ± 0.57 mN/m. In series [1] (298.15 K), the mass density is recorded as 943 ± 50 kg/m3.

Regarding `CCCC[n+]1ccn(C)c1.O=S(=O)([N-]S(=O)(=O)C(F)(F)F)C(F)(F)F`, in series [1] (293.15 K), the mass density stood at 1452 ± 13 kg/m3. For the same compound, the surface tension liquid-gas in series [1] (298.15 K) came out at 38.37 ± 0.69 mN/m.

Consider `CCCCn1cc[n+](C)c1C.O=S(=O)([N-]S(=O)(=O)C(F)(F)F)C(F)(F)F`, for which, in series [1] (293.15 K), the surface tension liquid-gas is 26.66 ± 0.49 mN/m and the mass density was 1425 ± 24 kg/m3.

As to `CCCCCCCCn1cc[n+](C)c1.O=S(=O)([N-]S(=O)(=O)C(F)(F)F)C(F)(F)F` + O, in series [2], the interfacial tension turned out to be 22.81 ± 0.41 mN/m.

Consider `CCCC[n+]1ccn(C)c1.O=S(=O)([N-]S(=O)(=O)C(F)(F)F)C(F)(F)F` + O, for which, in series [2], the interfacial tension was 15.15 ± 0.55 mN/m.

On to `CCCCn1cc[n+](C)c1C.O=S(=O)([N-]S(=O)(=O)C(F)(F)F)C(F)(F)F` + O, for which the interfacial tension in series [2] was 17.04 ± 1.3 mN/m.

For the compound `OCCO` [1,2-ethanediol], in series [1] (293.15 K), the mass density is listed as 1121 ± 7 kg/m3.

Take `COCCn1cc[n+](C)c1.F[B-](F)(F)F` [1-(2-methoxyethyl)-3-methyl-imidazolium tetrafluoroborate]: in series [1] (293.15 K), the surface tension liquid-gas is 35.31 ± 0.64 mN/m and the mass density was 1306 ± 7 kg/m3.

In the case of `CCCCn1cc[n+](C)c1.N#CN=C=[N-]` [1-butyl-3-methylimidazolium dicyanamide], in series [1] (293.15 K), the surface tension liquid-gas came to 38.14 ± 0.68 mN/m and the mass density stood at 1066 ± 10 kg/m3.

Turning to `CCCCn1cc[n+](C)c1.F[B-](F)(F)F` [1-butyl-3-methylimidazolium tetrafluoroborate], in series [1] (293.15 K), the surface tension liquid-gas came out at 44.28 ± 0.79 mN/m and the mass density is 1212 ± 5 kg/m3. Further, the mass density in series [1] (298.15 K) was found to be 1217 ± 12 kg/m3.

`CCCCCCCCCCn1cc[n+](C)c1.N#C[N-]C#N` [1-decyl-3-methylimidazolium dicyanamide]: in series [1] (293.15 K), the surface tension liquid-gas came to 31.15 ± 0.57 mN/m and the mass density stood at 1003 ± 5 kg/m3.

For `CCCCCCCCCCn1cc[n+](C)c1.F[B-](F)(F)F` [1-decyl-3-methylimidazolium tetrafluoroborate], in series [1] (293.15 K), the surface tension liquid-gas amounted to 23.65 ± 0.48 mN/m and the mass density is listed as 1076 ± 3 kg/m3.

For `CCOS(=O)(=O)[O-].CCn1cc[n+](C)c1` [1-ethyl-3-methylimidazolium ethyl sulfate], in series [1] (293.15 K), the surface tension liquid-gas was 46.13 ± 0.91 mN/m and the mass density worked out at 1242 ± 4 kg/m3.

As for `CCCCCCCC[n+]1ccn(C)c1.[Cl-]` [1-methyl-3-octylimidazolium chloride], in series [1] (293.15 K), the surface tension liquid-gas is 26.2 ± 0.57 mN/m and the mass density was 971 ± 6 kg/m3.

On to `CCCCCCCC[n+]1ccn(C)c1.F[B-](F)(F)F` [1-methyl-3-octylimidazolium tetrafluoroborate], for which, in series [1] (293.15 K), the surface tension liquid-gas is 33.22 ± 0.6 mN/m and the mass density is 1110 ± 5 kg/m3. In series [1] (298.15 K), the mass density turned out to be 1115 ± 46 kg/m3.

Take `Cn1cc[n+](CCO)c1.N#C[N-]C#N` [3-(2-hydroxyethyl)-1-methyl-1H-imidazol-3-ium dicyanoazanide]: in series [1] (293.15 K), the surface tension liquid-gas was found to be 45.75 ± 0.81 mN/m and the mass density came out at 1179 ± 3 kg/m3.

For `CCCCCCCCn1cc[n+](C)c1.N#C[N-]C#N` [3-methyl-1-octylimidazolium dicyanamide], in series [1] (293.15 K), the surface tension liquid-gas was 36.86 ± 0.66 mN/m and the mass density came out at 1013 ± 3 kg/m3.

For `CCCCCCCC[N+](C)(CCCCCCCC)CCCCCCCC.N#C[N-]C#N` [N,N,N-trioctyl-N-methylammonium dicyanamide], the surface tension liquid-gas in series [1] (293.15 K) stood at 28.8 ± 0.53 mN/m. Besides, the mass density in series [1] (298.15 K) was 890 ± 3 kg/m3.

In the case of `CCCCCCCC[N+](C)(CCCCCCCC)CCCCCCCC.[Cl-]` [N-methyl-N,N-dioctyl-1-octanaminium chloride], in series [1] (293.15 K), the surface tension liquid-gas was 26.44 ± 0.49 mN/m and the mass density was determined as 891 ± 6 kg/m3. Also, the mass density in series [1] (298.15 K) stood at 896 ± 18 kg/m3.

`CCCCCCCC[N+](C)(CCCCCCCC)CCCCCCCC.[Cl-]` [N-methyl-N,N-dioctyl-1-octanaminium chloride] + O: the interfacial tension in series [2] was determined as 3.66 ± 0.36 mN/m.

Take `ClCCl` [dichloromethane]: the mass density in series [1] (293.15 K) was 1327 ± 9 kg/m3.

Consider `CCCCCCCCO` [octan-1-ol], for which the mass density in series [1] (293.15 K) stood at 831 ± 3 kg/m3.

`CCCCCCCCO` [octan-1-ol] + O: the interfacial tension in series [2] was 8.3 ± 0.5 mN/m.

For `CCCCCCCCCCCCCC[P+](CCCCCC)(CCCCCC)CCCCCC.N#C[N-]C#N` [tetradecyl(trihexyl)phosphonium dicyanamide], in series [1] (293.15 K), the surface tension liquid-gas came out at 30.99 ± 0.61 mN/m.

Regarding `CCCCCCCCCCCCCC[P+](CCCCCC)(CCCCCC)CCCCCC.Cc1ccc(S(=O)(=O)[O-])cc1` [tetradecyl(trihexyl)phosphonium tosylate], in series [1] (293.15 K), the surface tension liquid-gas stood at 23.2 ± 0.53 mN/m. Further, the mass density in series [1] (298.15 K) worked out at 1003 ± 22 kg/m3.

As for `CCCCCCCCCCCCCC[P+](CCCCCC)(CCCCCC)CCCCCC.[Cl-]` [trihexyl(tetradecyl)phosphonium chloride], in series [1] (293.15 K), the surface tension liquid-gas is listed as 30.7 ± 0.56 mN/m and the mass density amounted to 918 ± 6 kg/m3.

Regarding `CCCCCCCCCCCCCC[P+](CCCCCC)(CCCCCC)CCCCCC.[Cl-]` [trihexyl(tetradecyl)phosphonium chloride] + O, in series [2], the interfacial tension was 6.11 ± 0.17 mN/m.

On to `O` [water], for which the mass density in series [1] (293.15 K) is listed as 1013 ± 5 kg/m3.
